Test results published in ChEMBL document CHEMBL2034824, “Pyridyl-2,5-diketopiperazines as potent, selective, and orally bioavailable oxytocin antagonists: synthesis, pharmacokinetics, and in vivo potency” (J Med Chem, 2012).
≈ marks a conversion by molar mass, not a printed value.

Key:
Oxytocin receptor [1] = target: T1, Oxytocin receptor (Homo sapiens, UniProt P30559); experiment: Antagonist activity at human oxytocin receptor assessed as inhibition of oxytocin binding by FLIPR analysis
T1 sequence (P30559 whole entry): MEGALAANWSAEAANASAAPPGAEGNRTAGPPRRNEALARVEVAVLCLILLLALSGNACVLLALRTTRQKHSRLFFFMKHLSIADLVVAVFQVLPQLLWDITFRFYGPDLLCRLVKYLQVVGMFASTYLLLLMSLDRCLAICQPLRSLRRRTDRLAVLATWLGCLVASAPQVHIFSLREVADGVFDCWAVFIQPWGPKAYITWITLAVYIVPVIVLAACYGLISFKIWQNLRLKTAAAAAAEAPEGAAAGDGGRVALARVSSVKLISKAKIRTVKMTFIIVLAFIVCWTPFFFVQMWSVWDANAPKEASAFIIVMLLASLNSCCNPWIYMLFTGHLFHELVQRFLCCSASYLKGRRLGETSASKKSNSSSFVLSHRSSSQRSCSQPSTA

[2] = Lipophilicity, log D of the compound by HPLC analysis; format: physicochemical
serum albumin [3] = target: serum albumin (Rattus norvegicus, UniProt P02770); experiment: Binding affinity to rat serum albumin; format: ADME; conditions: read-out: PB (converted)
[4] = AUC in dog at 0.6 mg/kg, po; format: ADME, organism-based, Canis lupus familiaris; design: dose 0.6 mg/kg, route oral; conditions: plasma
[5] = Oral bioavailability in rat at 5 mg/kg; format: ADME, organism-based; conditions: in vivo
serum albumin [6] = target: serum albumin (Homo sapiens, UniProt P02768); experiment: Binding affinity to human serum albumin; format: ADME; conditions: read-out: PB (converted)
[7] = AUC in rat at 5 mg/kg, po; format: ADME, organism-based; design: dose 5 mg/kg, route oral; conditions: plasma
[8] = Aqueous solubility of the compound by HPLC analysis; format: physicochemical
[9] = Oral bioavailability in dog at 0.6 mg/kg; format: ADME, organism-based, Canis lupus familiaris; conditions: in vivo
Oxytocin receptor [10] = target: T1, Oxytocin receptor; experiment: Displacement of [3H]oxytocin from human oxytocin receptor
[11] = Clearance in dog at 0.6 mg/kg; format: ADME, organism-based, Canis lupus familiaris; design: dose 0.6 mg/kg; conditions: in vivo
[12] = Clearance in rat at 5 mg/kg; format: ADME, organism-based; design: dose 5 mg/kg; conditions: in vivo
Liver microsomes [13] = experiment: Intrinsic clearance in rat liver microsomes; format: ADME, Microsome
Liver microsomes [14] = experiment: Intrinsic clearance in human liver microsomes; format: ADME, Microsome
[15] = Intrinsic clearance in cynomolgus monkey liver microsomes; format: ADME, Macaca fascicularis, Microsome
Liver = experiment: Intrinsic clearance in dog liver microsomes; format: ADME, Canis lupus familiaris, Microsome
[16] = Clearance in cynomolgus monkey at 2 mg/kg; format: ADME, organism-based, Macaca fascicularis; design: dose 2 mg/kg; conditions: in vivo
[17] = AUC in cynomolgus monkey at 2 mg/kg, po; format: ADME, organism-based, Macaca fascicularis; design: dose 2 mg/kg, route oral; conditions: plasma
[18] = Oral bioavailability in cynomolgus monkey at 2 mg/kg; format: ADME, organism-based, Macaca fascicularis; conditions: in vivo

Chain of serum albumin (Rattus norvegicus, UniProt P02770) (P02770 whole entry): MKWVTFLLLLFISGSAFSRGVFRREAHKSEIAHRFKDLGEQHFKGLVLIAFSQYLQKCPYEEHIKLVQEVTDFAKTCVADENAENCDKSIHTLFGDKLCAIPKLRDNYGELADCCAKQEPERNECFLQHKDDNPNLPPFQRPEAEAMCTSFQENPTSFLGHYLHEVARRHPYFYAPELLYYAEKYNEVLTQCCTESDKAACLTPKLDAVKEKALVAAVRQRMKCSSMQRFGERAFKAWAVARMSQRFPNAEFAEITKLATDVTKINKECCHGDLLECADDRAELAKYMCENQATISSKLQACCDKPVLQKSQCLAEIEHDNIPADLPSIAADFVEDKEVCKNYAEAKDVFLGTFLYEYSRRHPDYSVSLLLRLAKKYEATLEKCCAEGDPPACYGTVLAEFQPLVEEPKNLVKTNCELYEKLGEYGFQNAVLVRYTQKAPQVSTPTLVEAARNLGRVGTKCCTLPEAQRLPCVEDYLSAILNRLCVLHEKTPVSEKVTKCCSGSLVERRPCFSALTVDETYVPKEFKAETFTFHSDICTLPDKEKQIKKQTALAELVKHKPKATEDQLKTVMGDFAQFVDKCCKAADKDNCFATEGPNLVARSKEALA
Chain of serum albumin (Homo sapiens, UniProt P02768) (P02768 whole entry): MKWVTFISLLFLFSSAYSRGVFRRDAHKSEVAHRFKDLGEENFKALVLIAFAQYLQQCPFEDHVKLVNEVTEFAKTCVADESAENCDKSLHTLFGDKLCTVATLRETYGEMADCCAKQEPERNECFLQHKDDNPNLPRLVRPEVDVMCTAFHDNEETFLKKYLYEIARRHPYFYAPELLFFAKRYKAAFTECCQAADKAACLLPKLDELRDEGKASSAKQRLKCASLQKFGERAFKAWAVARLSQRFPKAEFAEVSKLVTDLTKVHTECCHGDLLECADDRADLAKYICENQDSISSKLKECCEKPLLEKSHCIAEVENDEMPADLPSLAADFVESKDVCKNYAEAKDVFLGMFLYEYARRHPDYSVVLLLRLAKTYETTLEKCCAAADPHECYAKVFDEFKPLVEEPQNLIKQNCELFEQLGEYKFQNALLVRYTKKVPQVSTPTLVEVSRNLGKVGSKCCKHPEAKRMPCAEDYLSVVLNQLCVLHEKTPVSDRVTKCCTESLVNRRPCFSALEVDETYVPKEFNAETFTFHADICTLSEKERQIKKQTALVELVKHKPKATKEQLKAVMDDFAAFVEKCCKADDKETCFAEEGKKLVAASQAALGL

Ki (Oxytocin receptor [1]) [nM]	logD [2]	fraction unbound (serum albumin [3])	AUC [4] [ng·h/mL]	bioavailability [5] [%]	fraction unbound (serum albumin [6])	AUC [7] [ng·h/mL]	solubility [8] [µg/mL]	bioavailability [9] [%]	Ki (Oxytocin receptor [10]) [nM]	clearance [11] [mL/min/kg]	clearance [12] [mL/min/kg]	CLH (Liver microsomes [13]) [mL/min/g]	CLH (Liver microsomes [14]) [mL/min/g]	CLH [15] [mL/min/g]	CLH (Liver) [mL/min/g]	clearance [16] [mL/min/kg]	AUC [17] [ng·h/mL]	bioavailability [18] [%]	SMILES
3.98																			CC(C)C[C@@H]1C(=O)N[C@H](C2Cc3ccccc3C2)C(=O)N1[C@@H](C(=O)NC(C)C)c1ccccc1Cl
7.94																			Cc1ccccc1[C@H](C(=O)NC(C)C)N1C(=O)[C@@H](C2Cc3ccccc3C2)NC(=O)[C@H]1CC(C)C
15.8																			CCc1ccccc1[C@H](C(=O)NC(C)C)N1C(=O)[C@@H](C2Cc3ccccc3C2)NC(=O)[C@H]1CC(C)C
31.6																			CC(C)C[C@@H]1C(=O)N[C@H](C2Cc3ccccc3C2)C(=O)N1[C@@H](C(=O)NC(C)C)c1ccccc1C(F)(F)F
31.6																			COc1ccccc1[C@H](C(=O)NC(C)C)N1C(=O)[C@@H](C2Cc3ccccc3C2)NC(=O)[C@H]1CC(C)C
39.8																			CC(C)C[C@@H]1C(=O)N[C@H](C2Cc3ccccc3C2)C(=O)N1[C@@H](C(=O)NC(C)C)c1ccccc1OC(F)(F)F
39.8																			CC(C)C[C@@H]1C(=O)N[C@H](C2Cc3ccccc3C2)C(=O)N1[C@@H](C(=O)NC(C)C)c1ccccc1-c1ccccc1
158																			COC(=O)c1ccccc1[C@@H](C(=O)NC(C)C)N1C(=O)[C@@H](C2Cc3ccccc3C2)NC(=O)[C@H]1CC(C)C
	2.7	0.14	158	62	0.08	2230	216 (≈ 451 µM)	13	0.398	8	23								COc1ccc([C@H](C(=O)N(C)C)N2C(=O)[C@@H](C3Cc4ccccc4C3)NC(=O)[C@H]2CC(C)C)cn1
	2.7	0.22		88	0.24	2130	249 (≈ 478 µM)		0.251		35								COc1ccc([C@H](C(=O)N2CCOCC2)N2C(=O)[C@@H](C3Cc4ccccc4C3)NC(=O)[C@H]2CC(C)C)cn1
	1.3	0.63			0.39		> 240		3.16										CC(C)C[C@@H]1C(=O)N[C@H](C2Cc3ccccc3C2)C(=O)N1[C@@H](C(=O)N(C)C)c1ccc(=O)[nH]c1
	2.6	0.18			0.26	135	233 (≈ 474 µM)		0.251										CC(C)C[C@@H]1C(=O)N[C@H](C2Cc3ccccc3C2)C(=O)N1[C@@H](C(=O)N(C)C)c1ccc(N(C)C)nc1
	2.9	0.29			0.3	80	235 (≈ 440 µM)		0.316										CC(C)C[C@@H]1C(=O)N[C@H](C2Cc3ccccc3C2)C(=O)N1[C@@H](C(=O)N1CCOCC1)c1ccc(N(C)C)nc1
	2.1	0.14	454	57	0.17	2680	> 236	26	1.58	6	18	3	11	21	3				Cc1ccc([C@H](C(=O)N(C)C)N2C(=O)[C@@H](C3Cc4ccccc4C3)NC(=O)[C@H]2CC(C)C)cn1
	2.1	0.38	53		0.33	811	> 253	10	0.398	17									Cc1ccc([C@H](C(=O)N2CCOCC2)N2C(=O)[C@@H](C3Cc4ccccc4C3)NC(=O)[C@H]2CC(C)C)cn1
	2.3	0.3		36	0.24	920	241 (≈ 493 µM)		0.501		33								Cc1ccc([C@H](C(=O)N2CCCC2)N2C(=O)[C@@H](C3Cc4ccccc4C3)NC(=O)[C@H]2CC(C)C)cn1
			21	18		770	213 (≈ 411 µM)	5	0.0794	24	20	1	4	21	9				Cc1ccc([C@H](C(=O)N2CCOCC2)N2C(=O)[C@@H](C3Cc4ccccc4C3)NC(=O)[C@H]2CC(C)(C)C)cn1
			347	62		2270	> 254	39	0.2	10	19	1	2	9	1				CC[C@H](C)[C@@H]1C(=O)N[C@H](C2Cc3ccccc3C2)C(=O)N1[C@@H](C(=O)N(C)C)c1ccc(C)nc1
			138	44		1590	> 280	31	0.501	20	39	1	4	8	2				CC[C@@H](C)[C@@H]1C(=O)N[C@H](C2Cc3ccccc3C2)C(=O)N1[C@@H](C(=O)N1CCOCC1)c1ccc(C)nc1
			55	54		1450	> 268	14	0.158	23	27	1	3	6	2				CC[C@H](C)[C@@H]1C(=O)N[C@H](C2Cc3ccccc3C2)C(=O)N1[C@@H](C(=O)N1CCOCC1)c1ccc(C)nc1
			73	< 1		24	> 242	11	1	14	28	1	1	1					CC[C@H](C)[C@@H]1C(=O)N[C@H](C2Cc3ccccc3C2)C(=O)N1[C@@H](C(=O)N(C)C)c1ccc(C)[n+]([O-])c1
			58	51		1730		13	0.398	22	25	1	5	6	5				CC[C@H](C)[C@@H]1C(=O)N[C@H](C2Cc3ccccc3C2)C(=O)N1[C@@H](C(=O)NC)c1ccc(C)nc1C
			305	84		4720		44	0.0794	14	15	1	7	14	1	20	17	1	CC[C@H](C)[C@@H]1C(=O)N[C@H](C2Cc3ccccc3C2)C(=O)N1[C@@H](C(=O)N(C)C)c1ccc(C)nc1C
			173	28		1470		38	0.1	22	17	1	4	8	2	24	29	4	CCC(CC)[C@@H]1C(=O)N[C@H](C2Cc3ccccc3C2)C(=O)N1[C@@H](C(=O)NC)c1ccc(C)nc1
				42		2330			0.0316		15	1	11	14	1		11		CCC(CC)[C@@H]1C(=O)N[C@H](C2Cc3ccccc3C2)C(=O)N1[C@@H](C(=O)N1CCOCC1)c1ccc(C)nc1C
													3	6		26	45	10	CC[C@H](C)[C@@H]1C(=O)N[C@H](C2Cc3ccccc3C2)C(=O)N1[C@@H](C(=O)N1CCOCC1)c1coc(C)n1 [RETOSIBAN]
